The results in this text go back to publication PMC10770036, “Novel dual inhibitors of PARP and HDAC induce intratumoral STING-mediated antitumor immunity in triple-negative breast cancer” (Cell Death & Disease, 2024).

One may read the IC50 as the concentration at which inhibition is half-maximal.

One data set has as its system H3K9 acetylation. Put plainly: Western blot of histone H3 lysine 9 acetylation in TNBC cells. It counts as cell-based, human. The conditions noted are these: TNBC cell lines, 48 h. The method, then: (§1) Western blot analysis was performed as previously described, and all western blot analyses were performed at least three times.
(§2) Western blot analysis was performed as previously described. Briefly, whole cell or tissue lysates were prepared using ice-cold Nonidet P-40 buffer mixed with protease and phosphatase inhibitors (Roche, IN, USA) and centrifuged at 14,000 × g at 4 °C for 10 min. The protein lysates were fractionated by sodium dodecyl sulfate–polyacrylamide gel electrophoresis (SDS–PAGE) and transferred to polyvinylidene fluoride (PVDF) membranes (Merck, Darmstadt, Germany). Membranes were incubated in 1× TBST buffer containing 5% nonfat powdered milk at room temperature for 2 h. The indicated primary antibody was incubated with PVDF membranes, followed by a washing step using 1× TBST and a secondary antibody conjugated to HRP. Signal detection was carried out using the Western ECL Substrate kit (Bio-Rad, Hercules, CA, USA). […]
(In western blotting, separated proteins are transferred to a membrane and probed.)

The nature of data set [1]: Body weight of tumor-bearing mice. It counts as in vivo. From the text: MDA-MB-436, MDA-MB-231, and 4T1 cells were orthotopically injected into the fat pads of 6- to 7-week-old female NOD-Prkdc^scid Il2rg^em1Smoc (M-NSG), BALB/c nude and BALB/c mice, respectively. Fourteen 6-week-old female MMTV-PyMT mice were divided into two groups. The […] in each group were littermates. All animal procedures were approved by the Institutional Animal Care and Use Committee at Shenzhen University.
MDA-MB-436 cells (5 × 10^6) were suspended in PBS and Matrigel (Corning) at a 1:1 ratio and orthotopically injected into the fat pads of 6- to 7-week-old female NOD-Prkdc^scid Il2rg^em1Smoc (M-NSG) mice from the Shanghai Model Organisms Center, Inc. MDA-MB-231 cells (5 × 10^6) were suspended in PBS orthotopically injected into the fat pads of 6- to 7-week-old female BALB/c nude mice from the Shanghai Model Organisms Center, Inc. 4T1 cells (1 × 10^6) were suspended in PBS and injected into the fat pads of 6- to 7-week-old […] BALB/c mice from GemPharmatech Co., Ltd. When the tumor size reached 100 mm^3, the mice were randomly divided into three treatment groups without blinding: B102 (15 mg/kg), B302 (50 mg/kg) or vehicle [10% N,N-dimethylacetamide (DMAC, Sangon Biotech) and 6% polyethylene glycol 12-hydroxystearate (Solutol HS-15, MedChem Express, Monmouth Junction, NJ, USA) in saline] treatment via an intraperitoneal injection once daily. […]

A further data set concerns MDA-MB-468 cells. Put plainly: MTT cell viability assay, MDA-MB-468. To be noted: Homo sapiens, MDA-MB-468, 72 h, read-out: IC50 MDA-MB-468. A general note: Formazan colour is commonly taken as a measure of viable cells.
The subject of the next data set is p-H2A.X. Put plainly: Western blot of H2A.X phosphorylation (DNA damage) in TNBC cells. Format: cell-based, human. The conditions noted are these: TNBC cell lines, 48 h. Here is the method:
as §1, §2

The test system of a further data set is MDA-MB-436 cells. Put plainly: MTT cell viability assay, MDA-MB-436. The conditions noted are these: Homo sapiens, MDA-MB-436, 72 h, read-out: IC50 MDA-MB-436.
A further data set deals with MDA-MB-231 cells. The experiment in a line: MTT cell viability assay, MDA-MB-231. The conditions noted are these: Homo sapiens, MDA-MB-231, 72 h, read-out: IC50 MDA-MB-231.
A further data set deals with MCF-7 cells. Put plainly: MTT cell viability assay, MCF-7. The conditions noted are these: Homo sapiens, MCF7, 72 h, read-out: IC50 MCF-7.
The subject of the next data set is TNBC cells. Put plainly: Transwell migration assay. Format: cell-based, human. To be noted: 48 h, compared with the vehicle. Here is the method: Cell migration and invasion assays were performed using Transwell chambers with 8 μm pores without Matrigel (for migration assay) or with Matrigel (for invasion assay).
Cell migration and invasion assays were performed using Transwell chambers with 8 μm pores (Corning) without Matrigel (for migration assay) or with Matrigel (for invasion assay). MDA-MB-436 and MDA-MB-231 cells were resuspended in serum-free Leibovitz’s L-15 medium and seeded in the upper chamber at a density of 12,000 cells/100 μL. The chambers were incubated in 24-well plates containing Leibovitz’s L-15 medium with 10% FBS and PARP/HDACi or DMSO. After 48 h, the cells were fixed with 4% paraformaldehyde and stained with crystal violet. The cells on the upper surface of the filters were removed by swabbing with a cotton swab, and the images were captured at 5× magnification under an inverted phase contrast microscope (Leica Microsystems).

SMILES strings stand for the structures.

Method for MCF-7 cells: (§3) The viability assay was measured by a 3-(4,5-dimethylthiazol-2-yl)−2,5-diphenyltetrazolium bromide (MTT) assay.
(§4) In brief, cells were seeded at a density of 6,000 cells in 96-well plates and cultured overnight. […] After aspiration of the medium, the formazan crystals were dissolved in 100 μL of DMSO. The absorbance at 490 nm was measured using a microplate reader (BioTek). All these analyses were performed at least three times.
Method for MDA-MB-231 cells: as §3, §4
Method for MDA-MB-436 cells: as §3, §4
Method for MDA-MB-468 cells: as §3, §4

Take `Nc1cc(F)ccc1NC(=O)/C=C/c1ccc(CN2CCN(C(=O)c3cc(Cc4n[nH]c(=O)c5ccccc45)ccc3F)CC2)cc1` [Compound B102]: the “acetylation of lysine 9 of histone H3 (H3K9)” value in the data set on H3K9 acetylation was “elevated the acetylation”. In addition, the “body weights of tumor-bearing mice” value in data set [1] (15 mg/kg/d) was “not obviously altered”. The IC50 in the data set on MDA-MB-468 cells came out at 270 ± 110 nM; with MDA-MB-436 cells, 160 ± 50 nM; in the data set on MDA-MB-231 cells, 160 ± 20 nM; with MCF-7 cells, 13.4 ± 3.2 µM. The “p-H2A.X levels (DNA DSBs)” value in the data set with p-H2A.X was “increased p-H2A.X (S136) levels”. In addition, in the data set on TNBC cells, the “migration of TNBC cells” value is listed as “considerably inhibited the migration”.
As for `Nc1cc(F)ccc1NC(=O)CCc1ccc(CN2CCN(C(=O)c3cc(Cc4n[nH]c(=O)c5ccccc45)ccc3F)CC2)cc1` [Compound B302], in the data set with H3K9 acetylation, the “acetylation of lysine 9 of histone H3 (H3K9)” value is listed as “elevated the acetylation”. Further, the “body weights of tumor-bearing mice” value in data set [1] (50 mg/kg/d) is given as “not obviously altered”. Also, the IC50 with MDA-MB-468 cells turned out to be 1270 ± 580 nM; in the data set with MDA-MB-436 cells, 4120 ± 1020 nM; with MDA-MB-231 cells, 2830 ± 400 nM; with MCF-7 cells it was 4.93 ± 1.09 µM. Further, the “p-H2A.X levels (DNA DSBs)” value in the data set with p-H2A.X was “increased p-H2A.X (S136) levels”. Also, the “migration of TNBC cells” value with TNBC cells was “considerably inhibited the migration”.
